# Values quoted from earlier work, collected in patent publication US20080275000A1, “COMPOSITIONS FOR REDUCING, AMELIORATING, TREATING, OR PREVENTING CONDITION OF DRY EYE AND METHODS OF MAKING AND USING SAME” (priority 2007, published 2008).
# Read-outs that look alike come from different tables or passages of the source.
# Tests used:
# [1] = buffering agent pH range
# [2] = Table 1, only or first printed value
pKa [2],"pKa (Table 1, second printed value)",Compound,further results
4.40,5.45,"O=C(O)[C@H]1CC[C@H](C(=O)O)C1 (relative stereo) [1,3-trans-cyclopentanedicarboxylic acid]",
4.25,6.22,CC(CC(=O)O)CC(=O)O [β-methylglutaric acid],
3.82,6.70,"O=C(O)CC1(CC(=O)O)CCCC1 [1,1-cyclopentanediacetic acid]",
4.85,,CCCCC(=O)O [valeric acid],
,5.42,O=C(O)CCCCCC(=O)O [pimelic acid],
,5.41,O=C(O)CCCCCCCC(=O)O [azelaic acid],
4.52,5.4,O=C(O)CCCCCCC(=O)O [suberic acid],

# The next lines start with the compound.
Compound,pKa [2],"pKa (Table 1, second printed value)",further results
"O=C(O)[C@@H]1CCC[C@H]1C(=O)O (relative stereo) [1,2-trans-cyclopentanedicarboxylic acid]",3.89,5.91,
"O=C(O)[C@H]1CC[C@@H](C(=O)O)CC1 [1,4-cis-cyclohexanedicarboxylic acid]",4.44,5.79,
O=C(O)CN(CCS(=O)(=O)O)CC(=O)O [N-2-sulfoethyliminodiacetic acid],,,pKa (first listed value): 1.92; pKa (second listed value): 2.28; pKa (third listed value): 8.16
"O=C(O)CN(CCN(CC(=O)O)CC(=O)O)CCN(CC(=O)O)CC(=O)O [DTPA, diethylenetriaminepentaacetic acid]",,,two pKa values (bound stated for two pKa values): greater than or equal to 6.30
O=C(O)CNCC(=O)O [iminodiacetic acid],,,pKa (first listed value): 2.98; pKa (second listed value): 9.89
"O=S(=O)(O)CCN1CCN(CCO)CC1 [HEPES, N-{2-hydroxyethyl}peperazine-N′-{2-ethanesulfonic acid}]",,,pH in the range of [1]: 6.8-8.2
O=C(O)c1cccnc1 [nicotinic acid],,,pKa (first listed value): 10.09; pKa (fourth listed value): 2.86; pKa (second listed value): 9.14; pKa (third listed value): 6.92
"O=S(=O)(O)CCCN1CCOCC1 [MOPS, 3-{N-morpholino}propanesulfonic acid]",,,pH in the range of [1]: 6.5-7.9
"O=C(O)[C@H]1CCC[C@H](C(=O)O)C1 (relative stereo) [1,3-trans-cyclohexanedicarboxylic acid]",4.18,5.93,
COCCN(CC(=O)O)CC(=O)O [2-methoxyethyliminodiacetic acid],,,pKa (first listed value): 2.2; pKa (second listed value): 8.96
O=COO [peroxyformic acid],7.1,,
CC(=O)C1C(=O)C=C(C)OC1=O (centres unmarked) [dehydroacetic acid],5.40,,
CCCC(=O)OO [n-peroxybutyric acid],8.2,,
CC1(C(=O)O)CCC(C(=O)O)C1(C)C (stereo not drawn) [(+) camphoric acid],4.72,,
CCCCOc1ccc(C(=O)O)cc1 [p-n-butoxybenzoic acid],4.53,,
"O=S(=O)(O)CCN(CCO)CCO [BES, N,N-bis{2-hydroxyethyl}2-aminoethanesulfonic acid]",,,pH in the range of [1]: 6.4-7.8
CSCCN(CC(=O)O)CC(=O)O [2-methylthioethyliminodiacetic acid],,,pKa (first listed value): 2.1; pKa (second listed value): 8.91
CCCOc1ccc(C(=O)O)cc1 [p-n-propoxybenzoic acid],4.46,,
CC(=O)OO [peroxyacetic acid],8.2,,
